Data taken from US20100075894A1, “REDUCING ER STRESS IN THE TREATMENT OF OBESITY AND DIABETES” (HARVARD UNIVERSITY, priority 2004, published 2010).
Entries after “also recorded” stand apart in the source; their conditions may differ. Each block holds one compound with its values, some of them ahead of it.

Legend:
[1] = tested on: ob/ob mice; experiment: sodium 4-phenylbutyrate and metformin in ob/ob mice: fed blood glucose; format: in vivo, mouse; details: oral gavage daily, 200 mg/kg/day (each), fed state
Method: Experiments are performed using the ob/ob genetic model of obesity and insulin resistance (C57B6. V-Lepob/OlaHsd mice were purchased from Harlan Teklad, Madison, Wis.). At seven weeks of age, treatments were started after acclimatization for 5 days by administration of PBS. After this period, PBS, sodium 4-phenylbutyrate (200 mg/kg/day), metformin (200 mg/kg/day), and sodium 4-phenylbutyrate plus metformin (200 mg/kg/day each) were administered into four separate experimental groups of mice (with at least six mice in each group) by oral gavage daily. […] Blood glucose levels were measured at the fed state at 8:00 AM.

[2] = tested on: Fao liver cells; experiment: ER stress inducers and insulin action in Fao liver cells; format: cell-based, rat; details: Fao cells, FIG. 12A
Method: (A) ER stress was induced in Fao liver cells by a 3-hour treatment with 5 μg/ml tunicamycin (Tun). Cells were subsequently stimulated with insulin (Ins). IRS-1 tyrosine and serine (Ser307) phosphorylation, Akt phosphorylation (Ser473), insulin receptor (IR) tyrosine phosphorylation, and their total protein levels were examined using either immunoprecipitation (IP) followed by immunoblotting (IB) or direct immunoblotting. (B) Quantitation of IRS-1 (tyrosine and Ser307), Akt (Ser473), and IR (tyrosine) phosphorylation under the experimental conditions described in (A) with normalization to protein levels for each molecule. (C) Inhibition of ER stress-induced (300 nM thapsigargin for 4 hours) Ser307 phosphorylation of IRS-1 by JNK-1 inhibitor, SP600125 (JNKi, 25 μM), (D) Quantitation of IRS-1 Ser307 phosphorylation under conditions described in (C). (E) Reversal of ER stress-induced inhibition of insulin-stimulated tyrosine phosphorylation (pY) of IRS-1 by a JNK inhibitor. (F) Quantitation of insulin-induced IRS-1 tyrosine phosphorylation levels described in (E). (G) JNK activity, Ser307 phosphorylation of IRS-1, and total IRS-1 levels at indicated times following tunicamycin treatment (Tun, 10 μg/ml for 1 hour) in IRE-1α^+/+ and IRE-1α^−/− fibroblasts. (H) Insulin-stimulated IRS-1 tyrosine phosphorylation and total IRS-1 levels following tunicamycin treatment (Tun, 10 μg/ml for 1 hour) in IRE-1α^+/+ and IRE-1α^−/− fibroblasts. […] All graphs show mean±SEM from at least 2 independent experiments and statistical significance from the controls is indicated by * with p<0.005.
(A) ER stress was induced in Fao cells by 1 hour treatment with 300 nM thapsigargin (Thap), and cells were subsequently stimulated with insulin (Ins). IRS-1 tyrosine phosphorylation (pY) and serine phosphorylation (pSer307), insulin receptor (IR) tyrosine phosphorylation, and total protein levels were examined using either immunoprecipitation (IP) followed by immunoblotting (IB) or direct immunoblotting. (B) Fao cells were treated with sulindac sulfide (SS: 0, 7.5, 30, and 60 μM) for 45 minutes with or without an additional hour of exposure to 300 nM thapsigargin (Thap). IRS-1 serine phosphorylation and total IRS-1 protein levels were examined as described above.
To investigate whether ER stress interferes with insulin action, we pretreated Fao liver cells with tunicamycin and thapsigargin, agents commonly used to induce ER stress. […] IRS-1 is a substrate for insulin receptor tyrosine kinase and serine phosphorylation of IRS-1, particularly mediated by JNK, reduces insulin receptor signaling (Hirosumi et al., Nature 420:333 (2002); incorporated herein by reference).
Cells: Rat Fao liver cells were cultured with RPMI 1640 (Gibco, Grand Island, N.Y.) containing 10% fetal bovine serum (FBS). […]

[3] = tested on: insulin receptor signaling; experiment: insulin receptor signaling in animals after treatment; format: in vivo; details: for serine phosphorylation of Akt / tyrosine phosphorylation of insulin receptor, insulin substrate 1-IRS-1 and IRS-1: animals; for insulin (receptor) signaling: overall statement
Description: (§1) For example, obesity increases the demand on the synthetic machinery of the cell in many secretory organ systems and is also associated with abnormalities in intracellular energy fluxes and nutrient availability. The present invention stems from the recognition that many of these diseases associated with obesity cause ER stress, particularly in peripheral tissues, and that ER stress is involved in triggering insulin resistance and type 2 diabetes, two sequelae of obesity. […] The agents useful in the treatment of these diseases include small molecules, proteins, nucleic acids, and any other chemical compounds known to reduce or prevent ER stress. These agents make act in any manner that reduces or prevents ER stress such as reducing the production of mutant or misfolded proteins, increasing the expression of ER chaperones, increasing the stability of proteins, boosting the processing capacity of the ER, etc. Particularly useful agents include chemical chaperones such as 4-phenyl butyrate (PBA), tauroursodeoxycholic acid (TUDCA), trimethylamine N-oxide (TMAO), glycerol, D2O, dimethylsufloxide, glycine betaine, methyl amines, and glycerophosphocholine. […] The agents may be administered in any manner known in the drug delivery art although preferably the agent is delivered orally or parenterally. Dose ranges for these agents depend on the agent being delivered as well as other factors but will typically be from 10 mg/kg/day to 10 g/kg/day.

[4] = tested on: ob/ob mice; experiment: 4-PBA in ob/ob mice: blood glucose, insulin tolerance test; format: in vivo, mouse; details: for blood glucose levels / insulin sensitivity in vivo: ob/ob mice
Method: A genetic (ob/ob) model of mouse obesity was used to analyze the effects of 4-phenyl butyrate (4-PBA) on insulin sensitivity and hyperglycemia. 10-12 weeks old, male, leptin deficient mice were obtained from Jackson Labs, acclimated by three times injection of PBS (3 times a day) for 4 days, and treated either with intraperitoneal injection of 4-PBA (1 g/kg/day in three divided doses) or phosphate buffer saline (PBS) (3 doses of 100 μl) for a period of 7 days. Fed blood glucose levels (mg/dl) at the 3rd and 7th days of trial (a). Insulin Tolerance Test (ITT) were performed on the 7th day after the first injection (b).
A genetic (ob/ob) model of mouse obesity was used to analyze the effects to 4-phenyl butyrate (4-PBA) on insulin sensitivity and hyperglycemia. 8-10 weeks old, male, leptin deficient mice were obtained from Jackson Labs, acclimated by PBS injection (2 times a day) for 4 days, and treated either with 4-PBA (500 mg/kg/day in two divided doses) or phosphate buffer saline (PBS) (2 doses of 200 μl) for a period of 20 days. Body weight during the treatment period (a). Blood glucose levels (mg/dl) after 6 hours of fasting at day 0 and day 20 (b). Insulin (ng/ml) levels at day 0 and day 20 (c). Insulin tolerance tests were performed at the 15th day of the treatment (d).
Animal Studies and Obesity Models: Adult (10-12 weeks of age) male ob/ob mice and their wild type (WT) littermates were purchased from Jackson Labs. Mice used in the diet-induced obesity model were male C57BL/6. All mice were placed on high fat diet (HFD: 35.5% fat, 20% protein, 32.7% carbohydrates, Bio-Serve) immediately after weaning (at ˜3 weeks of age). The XBP-1^+/− and XBP-1^+/+ mice were on Balb/C genetic background. Insulin and glucose tolerance tests were performed as previously described (Hirosumi et al., Nature 420:333 (2002); incorporated herein by reference). Insulin and C-peptide ELISA were performed according to manufacturer's instructions using mouse standards (Crystal Chem. Inc., Downers Grove, Ill.). Pancreas isolated from 16-week-old mice was fixed in Bouin's fluid and formalin, and paraffin sections were double-stained with guinea pig anti-insulin and rabbit anti-glucagon antibodies. Texas red dye conjugated donkey anti-guinea pig IgG and FITC conjugated Goat anti-rabbit IgG were used as secondary antibodies.

[5] = tested on: JNK; experiment: JNK activity in liver tissue of obese mice after PBA; format: in vivo, mouse; details: FIG. 21
[6] = tested on: ER stress; experiment: ER stress markers in animals, western blot after treatment with the compound; format: in vivo; details: for activation of JNK / phosphorylation of IRE-1α / phosphorylation of PERK: animals treated with the compound, western blot; for ER stress: overall statement
Description: as §1

[7] = tested on: ob/ob mice; experiment: TMAO in ob/ob mice: fed blood glucose, serum insulin; format: in vivo, mouse
Method: Experiments were performed using the ob/ob genetic model of obesity and insulin resistance (C57BL/6J-Lep-ob mice purchased from Jackson Laboratory, Bar Harbor, Me.). At seven weeks of age, treatments were started after acclimatization for 5 days by administration of PBS. After this period, TMAO (Sigma, T0514) was dissolved in PBS and administered by intraperitoneal (IP) injection every 24 hours at a dose of 1 g/kg/day. At the indicated days, fed blood glucose levels were measured at 8:00 AM using an automated glucometer system. For insulin measurements, blood samples were collected after 6 hours of fasting and serum insulin levels were determined using a specific ELISA (Crystal Chem, 90060). Each treatment group contained at least six animals per experimental group.

[8] = tested on: ob/ob mice; experiment: TUDCA in ob/ob mice: blood glucose, ITT; format: in vivo, mouse
Method: 9-10 weeks old ob/ob and their age and sex matched lean controls were used to analyze the effects of TUDCA on glucose metabolism and diabetes. After acclimation with PBS injection (once a day, 200 μl i.p. injection) for 4 days, mice were injected intraperitoneally with TUDCA (500 mg/kg once a day in 200 μl of PBS) (n=6 for lean and n=7 for ob/ob) and PBS (200 μl) (n=6 lean and n=7 for ob/ob). Blood glucose levels on the 4th, 7th, and 10th days after first injection (a). ITT on 10 days after the first injection (b).

[9] = FIG. 7, animals with insulin resistance and type 2 diabetes, 1 g/kg/day IP

Compound: CN(C)C(=N)N=C(N)N [metformin]
blood glucose [1]: did not have any effect on blood glucose

Compound: O=C([O-])CCCc1ccccc1.[Na+] [sodium 4-phenylbutyrate]
blood glucose [1]: did not have any effect on blood glucose

Compound: C/C=C(/C)C(=O)O[C@H]1C(C)=C2[C@H]([C@@H]1OC(=O)CCCCCCC)[C@@](C)(OC(C)=O)C[C@H](OC(=O)CCC)[C@@]1(O)[C@H]2OC(=O)[C@@]1(C)O [thapsigargin]
insulin receptor signaling (as for tunicamycin) [2]: Similar, results were also obtained

serine phosphorylation of Akt [3]: increased
tyrosine phosphorylation of insulin receptor, insulin substrate 1-IRS-1 and IRS-1 [3]: increased
insulin (receptor) signaling [3]: regulate insulin receptor signaling
Compound: O=C(O)CCCc1ccccc1 [PBA, 4-phenyl butyric acid]
blood glucose ([4]; FIGS. 4 and 5): effective in reducing blood glucose
insulin sensitivity ([4]; FIGS. 4 and 5): increasing insulin sensitivity
blood glucose levels ([4]; oral route 500 mg/kg/day in two divided doses, 20 days): lowers blood glucose levels
insulin sensitivity in vivo ([4]; oral route 500 mg/kg/day, ITT at 15th day): increases insulin sensitivity
blood glucose levels ([4]; parenteral (intraperitoneal) 1 g/kg/day in three divided doses, 7 days): lowers blood glucose levels
insulin sensitivity in vivo ([4]; parenteral (intraperitoneal) 1 g/kg/day, ITT on 7th day): increases insulin sensitivity
JNK activity in liver tissue [5]: normalization of JNK activity
activation of JNK [6]: reduced
phosphorylation of IRE-1α [6]: reduced
phosphorylation of PERK [6]: reduced
ER stress [6]: regulate ER stress in animals; also recorded: reduce ER stress

serine phosphorylation of Akt [3]: increased
tyrosine phosphorylation of insulin receptor, insulin substrate 1-IRS-1 and IRS-1 [3]: increased
insulin (receptor) signaling [3]: regulate insulin receptor signaling
Compound: C[C@H](CCC(=O)NCCS(=O)(=O)O)[C@H]1CC[C@H]2[C@@H]3[C@@H](O)C[C@@H]4C[C@H](O)CC[C@]4(C)[C@H]3CC[C@]12C [TUDCA, tauroursodeoxycholic acid]
insulin sensitivity ([7]; FIG. 7): increase insulin sensitivity
glucose levels [7, 9]: reduce blood glucose levels
diabetes ([8]; 500 mg/kg once a day i.p.): reverses diabetes
blood glucose levels ([8]; FIG. 6, 500 mg/kg once a day i.p.): reduce blood glucose levels
insulin sensitivity ([8]; FIG. 6, 500 mg/kg once a day i.p., 500 mg/kg): increases insulin sensitivity
activation of JNK [6]: reduced
phosphorylation of IRE-1α [6]: reduced
phosphorylation of PERK [6]: reduced
ER stress [6]: regulate ER stress in animals; also recorded: reduce ER stress

Compound: trimethylamine N-oxide [TMAO]
glucose levels [7, 9]: lowering
anti-diabetic effect ([7]; FIG. 7, ob/ob mice, 1 g/kg/day IP): act as an anti-diabetic agent in vivo; also recorded: anti-diabetic effect
insulin levels ([7]; animals with insulin resistance and type 2 diabetes, 1 g/kg/day IP): lowering
ER stress [6]: reduce ER stress
